Data: patent US20040073961A1, “Nematode screening assay” (priority 2002, published 2004)
Where two headings read alike, the source gives them in different places.

Columns and labels:
rat I7 OR [1] = target: T1, rat I7 OR (Rattus norvegicus, UniProt P23270); experiment: Population chemotaxis assay for volatile substances, Str-1::I7 transgenic worms (I7 expressed in AWB neurons); type: in vivo, C. elegans; design: expressed in transfected cells; host or cells: transgenic C. elegans; AWB neurons (str-1 promoter) or AWA neurons (odr-10 promoter)
T1 sequence (P23270 1-327): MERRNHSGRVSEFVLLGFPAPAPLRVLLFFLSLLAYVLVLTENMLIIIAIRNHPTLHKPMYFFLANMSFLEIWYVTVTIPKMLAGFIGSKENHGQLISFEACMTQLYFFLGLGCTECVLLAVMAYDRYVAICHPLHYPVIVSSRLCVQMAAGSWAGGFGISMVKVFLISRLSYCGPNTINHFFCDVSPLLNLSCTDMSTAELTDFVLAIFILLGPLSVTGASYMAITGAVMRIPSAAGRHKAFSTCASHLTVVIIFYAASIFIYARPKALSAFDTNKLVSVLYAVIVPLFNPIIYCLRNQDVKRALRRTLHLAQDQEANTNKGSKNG
Protocol: (§1) (Bargmann, C. I., Hartwieg, E., and Horvitz, H. R. (1993) Cell 74, 515-527). One microliter of odorant and one microliter 1 M sodium azide were added at one end of the dish (zone 1), and one microliter of solvent (ethanol) and one microliter 1 M sodium azide were added at the opposite end (zone 6) as a control. Sodium azide was included to anaesthetize animals entering zones 1 and 6.
(§2) Where reported, worms were exposed to a 1:100 dilution of diacetyl, undiluted benzaldehyde, undiluted octanal and 1:5, 1:10, 1:15, 1:25, 1:50, 1:100, and 1:1000 dilutions of octanal (Sigma Chemical Co., St. Louis, Mo.). Population assay data for N2 and transgenic worm lines were compared using the two-tailed t test.
To investigate the possibility to functionally express mammalian ORs in C. elegans, wild-type nematodes were first characterized for their ability to detect and respond to increasing dilutions of volatile chemicals and particularly to octanal, an agonist for the rat I7 OR (FIG. 4B; Zhao, H., Ivic, L., Otaki J. M., Hashimoto, M., Mikoshiba, K., and Firestein, S. (1998) Science 279, […]; Araneda, R. C., Kini, A. D., and Firestein, S. (2000) Nature Neurosci. 12, 1248-1255). […] Higher dilutions of octanal gave chemotaxis indexes close to 0 indicating a neutral response of the wild-type worms to lower concentrations of the odorant. […] As AWB neurons mediate volatile avoidance in C. elegans, it was expected that the expression of the rat I7 OR in AWB neurons and its activation with a 1:10 dilution of octanal would counteract the olfactory attraction to 1:10 octanal observed in wild-type worms. I7 transgenic worms were generated, in which I7 expression was driven by the str-1 promoter, a controlling element exclusively functional in the two AWB neurons (Troemel, E. R., Kimmel, B. E., and Bargmann, C. I. (1997) Cell 91, 161-169). Five independently derived C. elegans transgenic strains expressing I7 were tested (FIG. 5). […]

wild-type C. elegans [2] = settings: known from the literature, cited from earlier work
rat I7 OR [3] = target: T1, rat I7 OR; experiment: Population chemotaxis assay for volatile substances, Odr-10::I7 transgenic worms (I7 expressed in AWA neurons); type: in vivo, C. elegans; design: expressed in transfected cells; host or cells: transgenic C. elegans; AWB neurons (str-1 promoter) or AWA neurons (odr-10 promoter)
Protocol: as §1, §2
AWA neurons mediate chemotaxis to volatile attractants in C. elegans. […] It was expected that the activation of I7 with undiluted octanal in these transgenic worms would counteract the volatile avoidance to undiluted octanal observed in wild-type worms. Chemotaxis assays were performed with four independently derived C. elegans transgenic strains expressing I7 (FIG. 6). […] While most of the wildtype C. elegans were repelled toward zone 6, a significant number of odr-10::I7 transgenic worms was found in the proximity to the odorant source (FIGS. 6B and 3A). In order to investigate the specificity of the decrease in the aversive response of Odr10::I7 transgenic worms to undiluted octanal and to confirm that this decrease was due to the interaction of octanal with I7, chemotaxis assays with Odr-10::I7 transgenic worms were performed in which diacetyl and benzaldehyde were used.

rat I7 OR [4] = target: T1, rat I7 OR; settings: from the literature (Zhao 1998; Araneda 2000); cited from earlier work
wild-type C. elegans [5] = experiment: Population chemotaxis assay for volatile substances, wild-type worms; type: in vivo
Protocol: FIG. 3A: Chemotaxis assays on adult C. elegans to volatile compounds. […] One microliter of odorant and one microliter 1 M sodium azide were added at zone 1, and one microliter of control solvent and one microliter 1 M sodium azide were added at zone 6.
as §1, §2

[6] = specificity controls: 1:100 dilution of diacetyl, pure benzaldehyde, Str-1::I7 transgenic worms
[7] = specificity controls: diacetyl and benzaldehyde, Odr-10::I7 transgenic worms

Compound	change of chemotaxis index in relation to control wild-type worms (rat I7 OR [1]; [6])	behavioral response of wild-type C. elegans (wild-type C. elegans [2]; 1:100 dilution of diacetyl)	change of chemotaxis index in relation to control wild-type worms (rat I7 OR [3]; [7])	behavioral response of wild-type C. elegans (wild-type C. elegans [2]; pure benzaldehyde)	activity at the I7 receptor (rat I7 OR [4])	chemotaxis index (wild-type C. elegans [5]; 1:10 dilution of octanal, wild-type worms, scored after 1 hour)	chemotaxis index (wild-type C. elegans [5]; higher dilutions of octanal than 1:10, wild-type worms, neutral response)	chemotaxis index (wild-type C. elegans [5]; undiluted octanal, 1 microliter, wild-type worms, scored after 1 hour, +1.0 total attraction, −1.0 total repulsion)	change of chemotaxis index in relation to control wild-type worms (rat I7 OR [1]; 1:10 octanal, five Str-1::I7 transgenic worm strains, statistically significant)	change of chemotaxis index in relation to control wild-type worms (rat I7 OR [3]; undiluted octanal, four Odr-10::I7 transgenic worm strains, statistically significant)
CC(=O)C(C)=O [diacetyl]	did not change	induce attraction	did not change	–	–	–	–	–	–	–
O=Cc1ccccc1 [benzaldehyde]	did not change	–	did not change	induce aversion	do not activate	–	–	–	–	–
CCCCCCCC=O [octanal]	–	–	–	–	agonist	+0.5	~0	−0.6	decreased dramatically	increased dramatically
